The target in assay [1] is Maltase-glucoamylase, intestinal (Rattus norvegicus).
For assay [2], the target named is T1, Sucrase-isomaltase, intestinal (Rattus norvegicus, UniProt P23739). Description: Inhibition of rat intestinal sucrase using sucrose as substrate assessed as D-glucose release from substrate preincubated for 15 mins measured after 60 mins.
The target in assay [3] is Alpha-glucosidase MAL12 (Saccharomyces cerevisiae S288c, UniProt P53341). Put plainly: Inhibition of Saccharomyces cerevisiae alpha-glucosidase assessed as 4-nitrophenol release from 4-nitrophenyl alpha-D-glucopyranoside preincubated for 15 mins measured after 15 mins.
Assay [4] concerns the target T1, Sucrase-isomaltase, intestinal. Put plainly: Competitive inhibition of rat intestinal sucrase using sucrose as substrate by Lineweaver-Burk plot analysis.

Molecules are shown by their SMILES.

T1 sequence (P23739 1-1013 limits assumed): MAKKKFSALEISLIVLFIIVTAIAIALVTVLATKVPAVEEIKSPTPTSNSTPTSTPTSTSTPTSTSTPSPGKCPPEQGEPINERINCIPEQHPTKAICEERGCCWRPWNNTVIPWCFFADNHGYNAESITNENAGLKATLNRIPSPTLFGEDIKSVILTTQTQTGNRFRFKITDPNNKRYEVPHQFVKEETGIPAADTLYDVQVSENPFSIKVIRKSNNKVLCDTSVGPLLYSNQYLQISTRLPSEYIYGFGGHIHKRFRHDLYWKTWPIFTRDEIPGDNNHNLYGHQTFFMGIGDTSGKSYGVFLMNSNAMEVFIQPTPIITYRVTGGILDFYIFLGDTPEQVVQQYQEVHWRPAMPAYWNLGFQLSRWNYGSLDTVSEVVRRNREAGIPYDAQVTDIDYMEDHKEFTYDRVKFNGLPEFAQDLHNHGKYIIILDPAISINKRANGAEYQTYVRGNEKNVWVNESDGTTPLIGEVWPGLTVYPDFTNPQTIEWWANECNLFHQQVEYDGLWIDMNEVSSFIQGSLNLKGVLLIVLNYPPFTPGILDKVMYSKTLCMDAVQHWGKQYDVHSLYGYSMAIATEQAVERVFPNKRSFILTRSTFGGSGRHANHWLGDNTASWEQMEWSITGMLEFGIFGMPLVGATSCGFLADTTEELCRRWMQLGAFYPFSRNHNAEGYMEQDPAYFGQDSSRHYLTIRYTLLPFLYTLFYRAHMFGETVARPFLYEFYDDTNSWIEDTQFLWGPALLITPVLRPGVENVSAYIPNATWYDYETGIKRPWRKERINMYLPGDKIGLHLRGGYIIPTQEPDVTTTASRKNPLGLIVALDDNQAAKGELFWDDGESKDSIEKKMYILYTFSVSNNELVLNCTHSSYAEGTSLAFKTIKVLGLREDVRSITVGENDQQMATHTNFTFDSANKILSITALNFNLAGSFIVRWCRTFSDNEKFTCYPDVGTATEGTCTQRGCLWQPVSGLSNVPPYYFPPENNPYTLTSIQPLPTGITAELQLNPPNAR
T1 sequence (P23739 1014-1841 limits assumed): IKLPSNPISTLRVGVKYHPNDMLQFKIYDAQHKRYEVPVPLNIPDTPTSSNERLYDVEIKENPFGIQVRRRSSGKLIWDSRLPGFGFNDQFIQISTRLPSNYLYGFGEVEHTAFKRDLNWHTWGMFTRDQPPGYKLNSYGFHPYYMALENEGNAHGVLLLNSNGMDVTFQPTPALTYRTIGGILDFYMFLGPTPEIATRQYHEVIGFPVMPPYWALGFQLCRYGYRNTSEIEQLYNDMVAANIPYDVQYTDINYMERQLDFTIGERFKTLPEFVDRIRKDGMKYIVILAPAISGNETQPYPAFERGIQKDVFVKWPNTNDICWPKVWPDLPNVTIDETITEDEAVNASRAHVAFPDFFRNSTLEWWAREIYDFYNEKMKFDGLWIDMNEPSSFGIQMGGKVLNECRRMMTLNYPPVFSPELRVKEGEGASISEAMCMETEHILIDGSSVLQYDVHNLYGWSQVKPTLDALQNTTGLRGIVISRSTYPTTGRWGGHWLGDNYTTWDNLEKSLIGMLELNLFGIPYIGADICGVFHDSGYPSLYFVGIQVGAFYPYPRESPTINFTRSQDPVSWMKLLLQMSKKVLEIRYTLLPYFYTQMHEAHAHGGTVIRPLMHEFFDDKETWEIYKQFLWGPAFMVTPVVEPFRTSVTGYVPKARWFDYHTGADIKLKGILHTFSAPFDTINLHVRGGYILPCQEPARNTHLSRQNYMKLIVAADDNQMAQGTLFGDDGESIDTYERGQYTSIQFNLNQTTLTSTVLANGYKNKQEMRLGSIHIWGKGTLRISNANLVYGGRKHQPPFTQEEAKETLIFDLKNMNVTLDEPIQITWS
Chain of Alpha-glucosidase MAL12 (P53341 whole entry): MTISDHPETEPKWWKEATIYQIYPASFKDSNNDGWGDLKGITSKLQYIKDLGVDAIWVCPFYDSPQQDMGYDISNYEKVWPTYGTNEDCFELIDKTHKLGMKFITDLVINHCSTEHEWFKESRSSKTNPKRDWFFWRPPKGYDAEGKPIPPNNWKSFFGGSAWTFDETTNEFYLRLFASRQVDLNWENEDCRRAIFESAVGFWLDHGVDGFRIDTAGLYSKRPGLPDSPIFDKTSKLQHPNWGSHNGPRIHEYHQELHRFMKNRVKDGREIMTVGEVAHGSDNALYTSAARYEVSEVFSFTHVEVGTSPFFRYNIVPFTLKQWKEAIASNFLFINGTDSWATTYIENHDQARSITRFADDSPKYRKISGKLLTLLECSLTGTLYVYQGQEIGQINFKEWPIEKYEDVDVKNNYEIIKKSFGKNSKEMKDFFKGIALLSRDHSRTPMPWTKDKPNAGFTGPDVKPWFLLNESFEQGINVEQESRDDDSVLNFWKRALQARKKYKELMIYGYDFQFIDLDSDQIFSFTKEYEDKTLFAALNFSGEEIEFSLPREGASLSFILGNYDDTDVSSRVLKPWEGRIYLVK

One may read the IC50 as the concentration that gives 50% inhibition. For the molecule `Cc1ccc(S(=O)(=O)NC[C@@H]2O[C@H](CO)[C@@H](O)[C@H](O)[C@H]2O)cc1`, the IC50 is 476 µM in assay [1], 1420 µM in assay [2] and 101 µM in assay [3].

Regarding `OC[C@H]1O[C@@H](CNC/C=C/c2ccccc2)[C@H](O)[C@@H](O)[C@@H]1O`, the values for the IC50 in assay [2] and in assay [3] were 97.4 µM and 116 µM, respectively.

On to `O=C(NC[C@@H]1O[C@H](CO)[C@@H](O)[C@H](O)[C@H]1O)c1ccccc1`, for which the IC50 in assay [1] is 842 µM; in assay [2], greater than 2000 µM; in assay [3], 499 µM.

With `O=C(NC[C@@H]1O[C@H](CO)[C@@H](O)[C@H](O)[C@H]1O)c1ccc(Cl)cc1Cl`, the IC50 amounted to 585 µM in assay [1], 991 µM in assay [2] and 466 µM in assay [3].

Regarding `O=C(NC[C@@H]1O[C@H](CO)[C@@H](O)[C@H](O)[C@H]1O)c1ccc(F)cc1`, the IC50 turned out to be 464 µM in assay [1], 403 µM in assay [2] and 1520 µM in assay [3].

With `O=C(NC[C@@H]1O[C@H](CO)[C@@H](O)[C@H](O)[C@H]1O)c1cccc([N+](=O)[O-])c1`, the half-maximal inhibitory concentration (IC50) in assay [2] was determined as 381 µM; in assay [3] it was 283 µM.

For the molecule `O=C(NC[C@@H]1O[C@H](CO)[C@@H](O)[C@H](O)[C@H]1O)c1ccc([N+](=O)[O-])cc1`, the IC50 was 846 µM in assay [1], 1000 µM in assay [2] and 36.2 µM in assay [3].

On to `O=C(NC[C@@H]1O[C@H](CO)[C@@H](O)[C@H](O)[C@H]1O)c1ccccc1O`, for which the IC50 in assay [1] was 1010 µM; in assay [2], greater than 2000 µM; in assay [3] it was 470 µM.

As for `COc1ccccc1C(=O)NC[C@@H]1O[C@H](CO)[C@@H](O)[C@H](O)[C@H]1O`, the values for the IC50 in assay [1], in assay [2] and in assay [3] were 719 µM, 1090 µM and 471 µM, respectively.

In the case of `O=C(NC[C@@H]1O[C@H](CO)[C@@H](O)[C@H](O)[C@H]1O)c1ccc(O)cc1`, the values for the half-inhibitory concentration (IC50) in assay [1], in assay [2] and in assay [3] were 758 µM, 1640 µM and 1910 µM, respectively.

`COc1ccc(C(=O)NC[C@@H]2O[C@H](CO)[C@@H](O)[C@H](O)[C@H]2O)cc1`: the values for the IC50 in assay [1], in assay [2] and in assay [3] were 831 µM, 795 µM and 231 µM, respectively.

As to `COc1ccc(C(=O)NC[C@@H]2O[C@H](CO)[C@@H](O)[C@H](O)[C@H]2O)c(OC)c1`, the IC50 in assay [2] is greater than 2000 µM; in assay [3], 1860 µM.

As for `CC(=O)Oc1ccc(C(=O)NC[C@@H]2O[C@H](CO)[C@@H](O)[C@H](O)[C@H]2O)cc1`, the half-inhibitory concentration (IC50) in assay [1] amounted to 165 µM; in assay [2], 160 µM; in assay [3] it was 96.5 µM.

For the molecule `O=C(NC[C@@H]1O[C@H](CO)[C@@H](O)[C@H](O)[C@H]1O)c1ccco1`, the results for the IC50 in assay [2] and in assay [3] were 770 µM and 534 µM, respectively.

Take `O=C(NC[C@@H]1O[C@H](CO)[C@@H](O)[C@H](O)[C@H]1O)c1cccs1`: the values for the IC50 in assay [1], in assay [2] and in assay [3] were 445 µM, greater than 2000 µM and 325 µM, respectively.

Consider `CC(=O)Oc1cc(C(=O)NC[C@@H]2O[C@H](CO)[C@@H](O)[C@H](O)[C@H]2O)cc(OC(C)=O)c1OC(C)=O`, for which the IC50 is 7.7 µM in assay [1], 15.6 µM in assay [2] and 225 µM in assay [3].

Turning to `O=C(/C=C/c1ccccc1)NC[C@@H]1O[C@H](CO)[C@@H](O)[C@H](O)[C@H]1O`, the IC50 in assay [2] came out at 314 µM; in assay [3], 2.3 µM.

Take `O=C(/C=C/c1ccc(O)cc1)NC[C@@H]1O[C@H](CO)[C@@H](O)[C@H](O)[C@H]1O`: the values for the IC50 in assay [2] and in assay [3] were 405 µM and 5.6 µM, respectively.

With `CC(=O)Oc1ccc(/C=C/C(=O)NC[C@@H]2O[C@H](CO)[C@@H](O)[C@H](O)[C@H]2O)cc1`, the figures for the IC50 in assay [2] and in assay [3] were 155 µM and 142 µM, respectively.

On to `COc1cc(/C=C/C(=O)NC[C@@H]2O[C@H](CO)[C@@H](O)[C@H](O)[C@H]2O)ccc1O`, for which the IC50 came out at 382 µM in assay [1], 253 µM in assay [2] and 102 µM in assay [3].

One may read the Ki as a measure of affinity in units of concentration, obtained from inhibition or displacement. Low values mean higher affinity, high ones lower affinity. In assay [4], `CC(=O)Oc1ccc(/C=C/C(=O)NC[C@@H]2O[C@H](CO)[C@@H](O)[C@H](O)[C@H]2O)cc1OC(C)=O` had a Ki of 17.1 µM. Besides, the values for the IC50 in assay [2] and in assay [3] were 10.4 µM and 355 µM, respectively.

For `OC[C@H]1O[C@@H](CNCc2ccccc2)[C@H](O)[C@@H](O)[C@@H]1O`, the values for the IC50 in assay [1], in assay [2] and in assay [3] were 1330 µM, 270 µM and 39.2 µM, respectively.

As for `OC[C@H]1O[C@@H](CNCc2ccc(Cl)cc2Cl)[C@H](O)[C@@H](O)[C@@H]1O`, the IC50 in assay [2] worked out at 154 µM; in assay [3] it was 318 µM.

In the case of `OC[C@H]1O[C@@H](CNCc2ccc(Cl)c(Cl)c2)[C@H](O)[C@@H](O)[C@@H]1O`, the IC50 was 221 µM in assay [1], 144 µM in assay [2] and 613 µM in assay [3].

Consider `OC[C@H]1O[C@@H](CNCc2ccc(F)cc2)[C@H](O)[C@@H](O)[C@@H]1O`, for which the IC50 in assay [1] worked out at 202 µM; in assay [2], 301 µM; in assay [3], 115 µM.

On to `O=[N+]([O-])c1cccc(CNC[C@@H]2O[C@H](CO)[C@@H](O)[C@H](O)[C@H]2O)c1`, for which the figures for the IC50 in assay [1], in assay [2] and in assay [3] were 714 µM, 627 µM and 44.3 µM, respectively.

Regarding `OC[C@H]1O[C@@H](CNCc2ccccc2O)[C@H](O)[C@@H](O)[C@@H]1O`, the half-maximal inhibitory concentration (IC50) in assay [2] was found to be 181 µM; in assay [3] it was 156 µM.

In the case of `OC[C@H]1O[C@@H](CNCc2ccc(O)cc2)[C@H](O)[C@@H](O)[C@@H]1O`, the IC50 stood at 124 µM in assay [2] and 149 µM in assay [3].

`COc1ccc(CNC[C@@H]2O[C@H](CO)[C@@H](O)[C@H](O)[C@H]2O)cc1`: the values for the IC50 in assay [1], in assay [2] and in assay [3] were 306 µM, 179 µM and 457 µM, respectively.

`COc1ccc(CNC[C@@H]2O[C@H](CO)[C@@H](O)[C@H](O)[C@H]2O)cc1O`: the IC50 was determined as 407 µM in assay [1], 186 µM in assay [2] and 465 µM in assay [3].

Turning to `COc1cc(CNC[C@@H]2O[C@H](CO)[C@@H](O)[C@H](O)[C@H]2O)ccc1O`, the figures for the IC50 in assay [1], in assay [2] and in assay [3] were 223 µM, 186 µM and 377 µM, respectively.

As to `COc1ccc(CNC[C@@H]2O[C@H](CO)[C@@H](O)[C@H](O)[C@H]2O)c(OC)c1`, the IC50 in assay [1] was determined as 160 µM; in assay [2], 105 µM; in assay [3], 622 µM.

For `COc1ccc(C(C)NC[C@@H]2O[C@H](CO)[C@@H](O)[C@H](O)[C@H]2O)cc1O` (stereo partly specified), the IC50 in assay [2] was found to be 107 µM; in assay [3] it was 184 µM.

Turning to `OC[C@H]1O[C@@H](CNCc2cccs2)[C@H](O)[C@@H](O)[C@@H]1O`, the IC50 in assay [1] was 324 µM; in assay [2], 173 µM; in assay [3], 374 µM.
